Results: patent publication US8269043B2, “Bicyclic aryl sphingosine 1-phosphate analogs” (Biogen Idec MA Inc., priority 2008, dated 2012)

What follows are molecules tested on circulating lymphocytes (assay: Lymphopenia assay: circulating lymphocytes after oral gavage). Settings: C57bl/6 male mice, oral gavage 0.5 and 5 mg/kg in 30% HPCD, blood 5 and 24 hours after administration.
Assay type: in vivo
Outline: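 Male C57bl/6 mice, 6-10 weeks old, given 0.5 and 5 mg/kg orally by gavage in 30% HPCD, three mice per compound. Retro-orbital blood taken at 5 and 24 h post-dose. Peripheral lymphocytes counted on an automated hematology analyzer.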
With “(R)-2-Amino-2-[6-(cis-4-pentyl-cyclohexyloxy)-naphthalen-2-yl]-propan-1-ol and (R)-2-Amino-2-[6-(trans-4-pentyl-cyclohexyloxy)-naphthalen-2-yl]-propan-1-ol [Example 272]” the “Lymphopenia (ED50 mg/kg)” value was less than 0.5 mg/kg. In the case of “(R)-2-amino-2-(6-(3-(benzyloxy)phenylthio)naphthalen-2-yl)propan-1-ol [Example 155]”, the “Lymphopenia (ED50 mg/kg)” value is reported as less than 0.5 mg/kg. In the case of “(R)-2-amino-2-(6-((1R,2R,4S)-bicyclo[2.2.1]heptan-2-yloxy)naphthalen-2-yl)propan-1-ol [Example 105]”, the “Lymphopenia (ED50 mg/kg)” value is reported as greater than 5 mg/kg.

Same assay, conditions: Mus musculus, Lymphocyte, po, C57bl/6 male mice, oral gavage 0.5 and 5 mg/kg in 30% HPCD, blood 5 and 24 hours after administration
`CC(C)(C)[C@H]1CC[C@H](Oc2ccc3cc([C@@](C)(N)CO)ccc3c2Cl)CC1` [Example 236, (R)-2-amino-2-(6-(trans-4-tert-butylcyclohexyloxy)-5-chloronaphthalen-2-yl)propan-1-ol] was tested, and the ED50 was less than 0.5 mg/kg. For `CC(C)(C)[C@H]1CC[C@H](Oc2ccc3cc([C@@](C)(N)CO)ccc3c2Br)CC1` [Example 237, (R)-2-amino-2-(5-bromo-6-(trans-4-tert-butylcyclohexyloxy)naphthalen-2-yl)propan-1-ol], the ED50 was less than 0.5 mg/kg. `CC(C)(C)[C@H]1CC[C@H](Oc2ccc3cc([C@]4(C)COC(=O)N4)ccc3c2)CC1` [Example 238, (R)-4-(6-(trans-4-tert-butylcyclohexyloxy)naphthalen-2-yl)-4-methyloxazolidin-2-one] was tested, and the ED50 was less than 0.5 mg/kg. `CC(C)(C)[C@H]1CC[C@H](Oc2c(Cl)c(Cl)c3cc([C@@](C)(N)CO)ccc3c2Cl)CC1` [Example 240, (R)-2-amino-2-(6-(trans-4-tert-butylcyclohexyloxy)-5,7,8-trichloronaphthalen-2-yl)propan-1-ol] showed an ED50 greater than 5 mg/kg. `CC(C)(C)[C@H]1CC[C@H](Oc2ccc3cc([C@@](C)(N)CO)ccc3c2F)CC1` [Example 242, (R)-2-amino-2-(6-(trans-4-tert-butylcyclohexyloxy)-5-fluoronaphthalen-2-yl)propan-1-ol] showed an ED50 of less than 0.5 mg/kg. Work on `NC(CO)(CO)c1ccc2cc(Oc3ccc(Oc4ccccc4)cc3)ccc2c1` [Example 245, 2-amino-2-(6-(4-phenoxyphenoxy)naphthalen-2-yl)propane-1,3-diol] yielded an ED50 of less than 0.5 mg/kg. `NC(CO)(CO)c1ccc2cc(Oc3ccc(OCc4ccccc4)cc3)ccc2c1` [Example 248, 2-amino-2-(6-(4-(benzyloxy)phenoxy)naphthalen-2-yl)propane-1,3-diol] gave an ED50 of less than 0.5 mg/kg. In the case of `CCCCCOc1ccc(Oc2ccc3cc(C(N)(CO)CO)ccc3c2)cc1` [Example 251, 2-amino-2-(6-(4-(pentyloxy)phenoxy)naphthalen-2-yl)propane-1,3-diol], the ED50 is reported as less than 0.5 mg/kg. `C[C@](N)(CO)c1ccc2cc(O[C@H]3CC[C@@H](C(F)(F)F)CC3)ccc2c1` [Example 259, (R)-2-Amino-2-[6-(cis-4-trifluoromethyl-cyclohexyloxy)-naphthalen-2-yl]-propan-1-ol] gave an ED50 of 0.5 to 5 mg/kg. `C[C@](N)(CO)c1ccc2cc(O[C@H]3CC[C@H](C(F)(F)F)CC3)ccc2c1` [Example 260, (R)-2-Amino-2-[6-(trans-4-trifluoromethyl-cyclohexyloxy)-naphthalen-2-yl]-propan-1-ol] showed an ED50 of 0.5 to 5 mg/kg. `C[C@](N)(CO)c1ccc2c(C(F)(F)F)c(O[C@H]3CC[C@H](C(F)(F)F)CC3)ccc2c1` [Example 266, (R)-2-Amino-2-[5-trifluoromethyl-6-(trans-4-trifluoromethylcyclohexyloxy)-naphthalen-2-yl]propan-1-ol] gave an ED50 of less than 0.5 mg/kg. In the case of `CC(F)(F)[C@H]1CC[C@H](Oc2ccc3cc([C@@](C)(N)CO)ccc3c2)CC1` [Example 299, (R)-2-amino-2-(6-(trans-4-(1,1-difluoroethyl)cyclohexyloxy)naphthalen-2-yl)propan-1-ol], the ED50 is reported as less than 0.5 mg/kg. `CCC(F)(F)[C@H]1CC[C@H](Oc2ccc3cc([C@@](C)(N)CO)ccc3c2)CC1` [Example 305, (R)-2-amino-2-(6-(trans-4-(1,1-difluoropropyl)cyclohexyloxy)naphthalen-2-yl)propan-1-ol] gave an ED50 of less than 0.5 mg/kg. `CCCC(F)(F)[C@H]1CC[C@H](Oc2ccc3cc([C@@](C)(N)CO)ccc3c2)CC1` [Example 311, (R)-2-amino-2-(6-(trans-4-(1,1-difluorobutyl)cyclohexyloxy)naphthalen-2-yl)propan-1-ol] was tested, and the ED50 was less than 0.5 mg/kg. Molecule `CC(F)(F)[C@H]1CC[C@@H](Oc2ccc3cc([C@@](C)(N)CO)ccc3c2)CC1` [Example 319, (R)-2-amino-2-(6-(cis-4-(1,1-difluoroethyl)cyclohexyloxy)naphthalen-2-yl)propan-1-ol] has an ED50 greater than 5 mg/kg. Work on `CCC(F)(F)[C@H]1CC[C@@H](Oc2ccc3cc([C@@](C)(N)CO)ccc3c2)CC1` [Example 325, (R)-2-amino-2-(6-(cis-4-(1,1-difluoropropyl)cyclohexyloxy)naphthalen-2-yl)propan-1-ol] yielded an ED50 greater than 5 mg/kg. `CCCC(F)(F)[C@H]1CC[C@@H](Oc2ccc3cc([C@@](C)(N)CO)ccc3c2)CC1` [Example 331, (R)-2-amino-2-(6-(cis-4-(1,1-difluorobutyl)cyclohexyloxy)naphthalen-2-yl)propan-1-ol] showed an ED50 greater than 5 mg/kg. Molecule `CC(F)(F)[C@H]1CC[C@H](Oc2ccc3cc([C@@](C)(N)CO)ccc3c2C(F)(F)F)CC1` [Example 334, (R)-2-amino-2-(6-(trans-4-(1,1-difluoroethyl)cyclohexyloxy)-5-(trifluoromethyl)naphthalen-2-yl)propan-1-ol] has an ED50 of less than 0.5 mg/kg. With `CCC(F)(F)[C@H]1CC[C@H](Oc2ccc3cc([C@@](C)(N)CO)ccc3c2C(F)(F)F)CC1` [Example 337, (R)-2-amino-2-(6-(trans-4-(1,1-difluoropropyl)cyclohexyloxy)-5-(trifluoromethyl)naphthalen-2-yl)propan-1-ol] the ED50 was less than 0.5 mg/kg.

The molecules below were run against T1, human S1P1 (Homo sapiens, UniProt P21453) (assay: Calcium mobilization assay, agonist activity at human S1P1). Settings: recombinant CHEM cells expressing human S1P1, FLIPR Calcium 4 dye (FIG. 8, FIG. 11).
T1 construct: host or cells: recombinant CHEM cells
T1 sequence (P21453 whole entry): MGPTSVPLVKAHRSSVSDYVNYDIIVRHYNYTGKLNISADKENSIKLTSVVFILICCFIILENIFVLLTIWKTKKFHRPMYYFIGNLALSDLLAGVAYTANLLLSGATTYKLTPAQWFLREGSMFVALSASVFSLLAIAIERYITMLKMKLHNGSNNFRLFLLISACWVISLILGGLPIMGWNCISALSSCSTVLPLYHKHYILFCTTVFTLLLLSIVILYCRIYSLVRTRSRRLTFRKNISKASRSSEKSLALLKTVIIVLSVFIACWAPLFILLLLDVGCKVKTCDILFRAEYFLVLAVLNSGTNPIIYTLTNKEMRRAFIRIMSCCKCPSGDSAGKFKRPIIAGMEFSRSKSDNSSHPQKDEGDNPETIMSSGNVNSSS
Assay type: cell-based
Description: (§1) Compounds that were not specific for the S1P, receptor, can have activity for other S1P receptor subtypes, e.g., S1P2, S1P3, S1P4, or S1P5, and can cause undesirable side effects. Accordingly, compounds were tested to identify those that were specific for S1P1 activity and had little or no activity, or are antagonists of, S1P3 activity. Accordingly, the test compounds were tested in a calcium mobilization assay to determine agonist activity at either the human S1P1 or human S1P3 receptor, and antagonist activity only at the human S1P3 receptor. The procedure was essentially as described (with modifications described below) in Davis et al. (2005) Journal of Biological Chemistry, vol. 280, pp. 9833-9841, which is incorporated by reference in its entirety. Calcium mobilization assays were performed in recombinant CHEM cells expressing human S1P1 or S1P3 purchased from Millipore (Billerica, Mass.). To detect free intracellular calcium, S1P1 or S1P3 cells were loaded with FLIPR Calcium 4 dye from Molecular Devices (Sunnyvale, Calif.). Cells were imagined for calcium mobilization using a FLIPR^TETRA equipped with a 96-well dispense head.
In the case of `CC(C)(C)[C@H]1CC[C@H](Oc2ccc3cc(C(N)(COP(=O)(O)O)COP(=O)(O)O)ccc3c2C(F)(F)F)CC1` [Example 61A, 2-amino-2-[6-(trans-4-tert-butylcyclohexyloxy)-5-trifluoromethyl-naphthalen-2-yl]-propane-1,3-diphosphoric acid], the S1P1 agonist activity is reported as “agonists of the S1P, receptor, with potencies similar to S1P”. `C[C@](N)(COP(=O)(O)O)c1ccc2c(C(F)(F)F)c(O[C@H]3CC[C@H](C(F)(F)F)CC3)ccc2c1` [Example 269, Phosphoric acid mono-{(R)-2-amino-2-[5-trifluoromethyl-6-(trans-4-trifluoromethyl-cyclohexyloxy)-naphthalen-2-yl]-propyl}ester] was tested, and the S1P1 agonist activity was “S1P, agonists”.

What follows are molecules tested against T2, human S1P3 receptor (Homo sapiens, UniProt Q99500) (assay: Calcium mobilization assay, agonist activity at human S1P3). Settings: recombinant CHEM cells expressing human S1P3, FLIPR Calcium 4 dye (FIG. 9, FIG. 11).
T2 construct: host or cells: recombinant CHEM cells
T2 sequence (Q99500 whole entry): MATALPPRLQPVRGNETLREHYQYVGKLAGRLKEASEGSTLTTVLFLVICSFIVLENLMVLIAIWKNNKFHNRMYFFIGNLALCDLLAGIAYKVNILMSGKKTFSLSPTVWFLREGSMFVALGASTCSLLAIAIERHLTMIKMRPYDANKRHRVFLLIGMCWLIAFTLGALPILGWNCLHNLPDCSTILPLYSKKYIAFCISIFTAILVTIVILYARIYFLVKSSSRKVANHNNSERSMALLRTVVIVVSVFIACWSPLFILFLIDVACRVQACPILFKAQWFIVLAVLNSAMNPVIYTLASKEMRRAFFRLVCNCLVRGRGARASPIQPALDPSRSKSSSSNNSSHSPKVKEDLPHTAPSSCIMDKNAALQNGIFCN
Assay type: cell-based
Description: as §1
`COc1ccc2cc([C@H](C)COC(N)=O)ccc2c1` [Example 2, carbamic acid (S)-2-(6-methoxy-naphthalen-2-yl)-propyl ester] was tested, and the S1P3 agonist activity was “no activity was seen”. For `C[C@](N)(COP(=O)(O)O)c1ccc2c(C(F)(F)F)c(O[C@H]3CC[C@H](C(F)(F)F)CC3)ccc2c1` [Example 269, Phosphoric acid mono-{(R)-2-amino-2-[5-trifluoromethyl-6-(trans-4-trifluoromethyl-cyclohexyloxy)-naphthalen-2-yl]-propyl}ester], the S1P3 agonist activity was “not S1P3 agonists”. In the case of `CCCCCCCCCCCCC/C=C/[C@@H](O)[C@@H](N)COP(=O)(O)O` [Example S1P, Sphingosine 1-phosphate], the S1P3 agonist activity is reported as “full S1P3 agonist”.

What follows are molecules tested against T2, human S1P3 receptor (assay: Calcium mobilization assay, antagonist activity at human S1P3). Settings: recombinant CHEM cells expressing human S1P3, FLIPR Calcium 4 dye (FIG. 10, FIG. 11).
Assay type: cell-based
Description: as §1
`CC(C)(C)[C@H]1CC[C@H](Oc2ccc3cc(C(N)(COP(=O)(O)O)COP(=O)(O)O)ccc3c2C(F)(F)F)CC1` [Example 61A, 2-amino-2-[6-(trans-4-tert-butylcyclohexyloxy)-5-trifluoromethyl-naphthalen-2-yl]-propane-1,3-diphosphoric acid] was tested, and the S1P3 antagonist activity was “do not antagonize the S1P3 receptor”. With `C[C@](N)(COP(=O)(O)O)c1ccc2c(C(F)(F)F)c(O[C@H]3CC[C@H](C(F)(F)F)CC3)ccc2c1` [Example 269, Phosphoric acid mono-{(R)-2-amino-2-[5-trifluoromethyl-6-(trans-4-trifluoromethyl-cyclohexyloxy)-naphthalen-2-yl]-propyl}ester] the S1P3 antagonist activity was “S1P3 antagonists”.
